Experimental data reported in US11691960B2, “2-[thiophen-2-yl)formamido]-N-(phenyl)-2-methylpropanamide derivatives and the use thereof as medicament” (Boehringer Ingelheim International GmbH, priority 2020, dated 2023).

What was measured:
human Factor Xa = human Factor Xa (Homo sapiens (Human), UniProt P00742); assay: Assay C: human Factor Xa chromogenic substrate assay; assay type: biochemical; settings: for IC50: human Factor Xa 0.86 nM, chromogenic substrate S2765; for Selectivity Assay C/Assay A: ratio IC50 Factor Xa / IC50 IDO1
Procedure: Assay C. In Vitro Testing of Human Factor Xa Potency:
Measurement of active human Factor Xa using a specific chromogenic substrate which is labeled with a p-nitro-anilino group (pNA). The cleavage in between the binding of the peptide substrate and the pNA-group is followed by a color change, which can be detected at 405 nm. The amount of cleaved substrate is directly proportional to the amount of active Xa.
[…] (100 U) human Factor Xa (Enzyme Research Laboratories; HFXa1011) were solved in 0.444 ml H2O (Millipore), which accords to a stock solution of 19.28 μM or 225 U/ml. Further dilutions were made in the assay buffer (Tris 100 mM, NaCL 150 mM, adjusted to a pH of 7.8 with HCL, containing 0.1% BSA and 0.05% Tween20). 25 mg (1 vial) of the chromogenic substrate S2765 (Chromogenix; S2765) was solved in 3.5 ml H2O (Millipore) to achieve a stock solution of 10 mM.
Compounds were solved and diluted in DMSO where the final dilution in the assay is 1:10 resulting in a final concentration of 1% DMSO.
• the prefinal dilution step was 1:10 in the assay buffer containing 11% DMSO resulting in 10% DMSO • final dilution in the assay is 1:10 resulting in a final concentration of 1% DMSO
Compounds were tested at final concentrations of 10 μM to 0.003 nM or lower. 5 μl human factor Xa (final concentration 0.86 nM), 2 μl compound dilution or assay buffer (containing 10% DMSO) and 8 μl assay buffer were pipetted in triplicates into a 384-well plate and incubated in the Thermomix at 24° C. for 10 minutes.
After addition of 5 μl chromogenic substrate (final concentration 0.5 mM) the enzyme-substrate reaction started and the kinetic measurement with the SpectraMax Monochromator was started within 1-2 minutes. • Parameter of measurement: (Spectra ax, Monochromator) • Absorbance; 1.LM 405 nM • Kinetic: 16 min each 2nd minute (9 times) • Negative Control (NC) 5 μl human factor Xa+10 μl assay buffer+5 μl Substrate • Positive Control (PC): 5 μl human factor Xa+2 μl Nafamostat (commercially available, final concentration: 1 μM)+8 μl assay buffer+5 μl Substrate • Blank (optional): 15 μl assay buffer+5 μl Substrate
Calculation of IC50, KI and the % effect at the highest concentration (Ratio)
For the calculation the average of the Vmax-values in between 120 sec to 720 sec were taken.
A x/y-Plot was created: x=log (M, Compound); y=vmax (drfu/min)
The data were analyzed with the curve fitting model: log (inhibitor) vs. response—Variable slope (four parameters)
The results of this fit were Top, Bottom, Log (IC50, M), Hillslope and IC50 (M)

human androgen receptor = human androgen receptor (Homo sapiens (Human), UniProt P10275); assay: Assay B: human androgen receptor luciferase reporter assay (Indigo Biosciences); assay type: cell-based; settings: for Selectivity Assay B/Assay A: ratio IC50 androgen receptor / IC50 IDO1
Description: Assay B. In Vitro Testing of Androgen Receptor Potency:
The human androgen receptor (AR) assay was run using Product #IB03001 from Indigo Biosciences. The cell line provided in this kit carries a reporter gene, induced upon AR stimulation. This reporter gene is cDNA encoding for beetle luciferase, a 62 kD protein originating from the North American firefly (Photinus pyralis). This luciferase catalyzes the mono-oxidation of D-luciferin yielding oxyluciferin, adenosine monophosphate, pyrophosphate, CO2, and photon emission. The luminescence intensity of the reaction is quantified using a luminometer.
To run the assay, the cells are thawed by adding pre-warmed cell recovery medium to each tube, then placed in a 37° C. water bath. 30000 viable cells in 200 μl are plated (collagen coated plates) and incubated at 37° C., ≥85% humidity, 5% CO2 for 24 hours. Media is replaced with compound screening medium. Cells are then challenged with 125 pM (EC80) 6a-Fl Testosterone and compounds are applied in half logarithmic dilutions from 10 μM to 10 nM. Assay plates are then incubated at 37° C., ≥85% humidity, 5% CO2 for 22-24 hours. Media is replaced with luciferase detection reagent and allowed 5 minutes to equilibrate prior to luminescence quantification.
Data Analysis consisted of calculating percentage of control between 100% (Negative control:6a-Fl Testosterone) and 0 (positive control: no 6a-FL Testosterone). Fitting of normalized values was made 4-Parameter sigmoidal binding curve (Log[conc]) vs. signal.

human hepatocytes = assay: Assay D: metabolic stability in human hepatocytes; assay type: in vitro ADME
Procedure: Assay D. Assessment of Metabolic Stability in Human Hepatocytes
The metabolic degradation of the test compound is assayed in a hepatocyte suspension. After recovery from cryopreservation, human hepatocytes are incubated in Dulbecco's modified eagle medium supplemented with 3.5 μg glucagon/500 mL, 2.5 mg insulin/500 mL and 3.75 mg/500 mL hydrocortisone) containing 5% or 50% human serum or in absence of serum.
Following a 30 min preincubation in a cell culture incubator (37° C., 10% CO2), 5 μl of test compound solution (80 μM; derived from a 2 mM DMSO stock solution by dilution 1:25 with medium) are added into 395 μl hepatocyte suspension, resulting in a final cell density of 1 Mio cells/mL, a final test compound concentration of 1 μM, and a final DMSO concentration of 0.05%.
The cells are incubated for six hours (incubator, orbital shaker) and samples (25 μl) are removed from the incubation after 0, 0.5, 1, 2, 4 and 6 hours. Samples are transferred into acetonitrile and pelleted by centrifugation (5 min). The supernatant is transferred to a new 96-deepwell plate, evaporated under nitrogen and resuspended prior to analysis of decline of parent compound by HPLC-MS/MS.
CLint is calculated as follows: CL_INTRINSIC=k/CD×1000/60 k: slope of the regression line for parent decline [h^−1], CD: cell density of vital cells [10e6 cells/mL],
The calculated in vitro hepatic intrinsic clearance is scaled up to the intrinsic in vivo hepatic Clearance and used to predict hepatic in vivo blood clearance (CL) by the use of a liver model (well stirred model): CL_INTRINSIC_INVIVO [ml/min/kg]=(CL_INTRINSIC [μL/min/10e6 cells]×hepatocellularity [10e6 cells/g liver]×liver factor [g/kg bodyweight])/1000 CL[ml/min/kg]=CL_INTRINSIC_INVIVO [ml/min/kg]×hepatic blood flow [ml/min/kg]/(CL_INTRINSIC_INVIVO[ml/min/kg]+hepatic blood flow [ml/min/kg])
Results are expressed as percentage of hepatic blood flow: QH[%]=CL[ml/min/kg]/hepatic blood flow [ml/min/kg])
Hepatocellularity, human: 120×10e6 cells/g liver
Liver factor, human: 25.7 g/kg bodyweight
Blood flow, human: 20.7 ml/(min×kg)

Chain of human Factor Xa (P00742 235-488): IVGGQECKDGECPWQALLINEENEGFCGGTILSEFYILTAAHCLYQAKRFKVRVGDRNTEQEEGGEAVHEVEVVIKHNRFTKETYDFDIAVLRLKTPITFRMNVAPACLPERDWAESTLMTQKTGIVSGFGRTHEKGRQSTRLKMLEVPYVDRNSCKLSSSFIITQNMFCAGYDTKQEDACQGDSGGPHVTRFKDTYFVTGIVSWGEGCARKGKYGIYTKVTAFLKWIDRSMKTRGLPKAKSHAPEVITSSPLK
Chain of human Factor Xa (P00742 41-179 partner): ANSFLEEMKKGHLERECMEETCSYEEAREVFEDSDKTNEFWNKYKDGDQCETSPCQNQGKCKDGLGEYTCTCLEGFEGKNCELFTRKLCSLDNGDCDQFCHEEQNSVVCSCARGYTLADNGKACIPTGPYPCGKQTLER
Chain of human androgen receptor (P10275 whole entry): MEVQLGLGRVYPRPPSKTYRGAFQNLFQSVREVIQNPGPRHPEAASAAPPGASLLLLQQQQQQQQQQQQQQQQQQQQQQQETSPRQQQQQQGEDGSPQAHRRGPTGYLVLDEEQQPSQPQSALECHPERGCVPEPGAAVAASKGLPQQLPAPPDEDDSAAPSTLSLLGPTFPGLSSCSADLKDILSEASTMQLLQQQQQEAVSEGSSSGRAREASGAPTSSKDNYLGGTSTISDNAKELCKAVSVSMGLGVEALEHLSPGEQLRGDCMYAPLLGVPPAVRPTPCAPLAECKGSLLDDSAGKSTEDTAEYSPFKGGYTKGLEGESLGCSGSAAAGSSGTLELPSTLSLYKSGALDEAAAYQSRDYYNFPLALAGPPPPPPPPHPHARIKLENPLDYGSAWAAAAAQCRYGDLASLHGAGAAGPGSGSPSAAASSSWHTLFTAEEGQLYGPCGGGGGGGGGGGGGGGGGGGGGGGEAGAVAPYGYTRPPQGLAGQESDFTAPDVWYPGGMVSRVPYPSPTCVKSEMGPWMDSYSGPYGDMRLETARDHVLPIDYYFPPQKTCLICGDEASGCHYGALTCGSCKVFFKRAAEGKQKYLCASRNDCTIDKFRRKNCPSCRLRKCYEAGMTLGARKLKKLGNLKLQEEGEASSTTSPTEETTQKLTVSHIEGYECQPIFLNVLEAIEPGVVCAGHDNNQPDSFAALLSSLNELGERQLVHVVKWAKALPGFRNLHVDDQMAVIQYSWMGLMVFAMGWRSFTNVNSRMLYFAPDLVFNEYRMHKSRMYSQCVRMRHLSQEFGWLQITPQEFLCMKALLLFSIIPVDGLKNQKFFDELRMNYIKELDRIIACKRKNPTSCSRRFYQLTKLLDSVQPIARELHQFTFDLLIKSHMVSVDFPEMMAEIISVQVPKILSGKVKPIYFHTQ

## CC(C)(NC(=O)c1ccc(Cl)s1)C(=O)Nc1ccc(Cl)c(F)c1 [Example 3, 2-[(5-chlorothiophen-2-yl)formamido]-N-(4-chloro-3-fluorophenyl)-2-methylpropanamide]
Human Factor Xa
  IC50: > 10 µM
  Selectivity Assay C/Assay A: >55
Human androgen receptor
  Selectivity Assay B/Assay A: 33
Human hepatocytes
  metabolic stability in human hepatocytes (in words): metabolically stable

## CC(C)(NC(=O)c1ccc(Cl)s1)C(=O)Nc1ccc(Br)cc1 [Example 4, 2-[(5-chlorothiophen-2-yl)formamido]-N-(4-bromophenyl)-2-methylpropanamide]
Human Factor Xa
  IC50: > 10 µM
  Selectivity Assay C/Assay A: >42
Human androgen receptor; challenge with 125 pM (EC80) 6a-Fl Testosterone, mean +− standard deviation
  IC50: > 10 µM
Human androgen receptor
  Selectivity Assay B/Assay A: >42
Human hepatocytes
  metabolic stability in human hepatocytes (in words): metabolically stable
